Experimental data: patent US20010051181A1, “NOVEL FORMULATIONS FOR THE TRANSDERMAL ADMINISTRATION OF ASIMADOLINE” (priority 1997, published 2001)
Counter-ions that a name gives are not always drawn.

Assay: in vitro skin flux of asimadoline through human cadaver epidermis
Assay type: in vitro ADME
Conditions: representative range; depending on the drug form, permeation enhancer, and if an in-line adhesive is present
Method: Release of asimadoline from transdermal systems into aqueous medium was measured over 24 hours at 35° C. Each system had its exposed edges masked. The systems were then mounted on a Teflon® holder of a release rate rod using nylon mesh and nickel wire. A known volume of receptor solution (50 mM Na2PO4, pH 5.5) was then placed in a test tube and equilibrated at 35° C. The test tube was placed in a water bath and maintained at 35° C. The Teflon rod with attached system was then reciprocated within the test tube by attaching the rod to a motor which caused constant vertical mixing.
At given time intervals, the entire receptor solution was removed from the test tubes and replaced with an equal volume of fresh receptor solutions previously equilibrated at 35° C. The receptor solutions were stored in capped vials at 4° C. until assayed for asimadoline content by HPLC. From the drug concentration and the volume of the receptor solutions, the area of the system and the time interval, the release rate of the drug from the system was calculated as follows: (drug concentration×volume of receptor)/(area×time)=release rate (μg/cm^2 hr). […]
Transdermal systems set forth in Table 1 were prepared according to Example 1 and used to measure permeation through human cadaver skin. […] Asimadoline permeation through the epidermis was then measured according to the procedure set forth in Example 1. […]

With `CN(C(=O)C(c1ccccc1)c1ccccc1)[C@H](CN1CC[C@H](O)C1)c1ccccc1` [asimadoline hydrochloride, N-[(aS)-α-[[(3S)-3-Hydroxy-1-pyrrolidinyl]methyl]benzyl]-N-methyl-2,2-diphenylacetamide] the “in vitro skin flux through human skin” value was 0.2-10 mg/cm^2·hr.
